pIC50: −log10 of the molar value. Converted amounts (≈) assume the structure as drawn.
How the values were obtained:
[1] = Partition coefficient (logP); type: physicochemical; conditions: octanol/water
[2] = test system: Escherichia coli; assay: Minimum inhibitory activity against Escherichia coli GC 4559; type: functional
[3] = test system: Escherichia coli; assay: Minimum inhibitory activity against Escherichia coli GC 4560; type: functional
[4] = test system: Enterococcus faecalis; assay: Minimum inhibitory activity against Enterococcus faecalis GC 2242 (VRE); type: functional
[5] = test system: Enterococcus faecalis; assay: Minimum inhibitory activity against Enterococcus faecalis GC 4555 (ATCC); type: functional
[6] = Minimum inhibitory activity against MSCNS GC 646; type: functional; conditions: Staphylococcus
[7] = Minimum inhibitory activity against Streptococcus pneumoniae GC1894 (PRSP); type: functional
[8] = Minimum inhibitory activity in presence of 4% bovine serum albumin against Streptococcus pneumoniae GC1894 (PRSP); type: functional
[9] = test system: Staphylococcus aureus; assay: Minimum inhibitory activity against Staphylococcus aureus GC 1131 (MRSA); type: functional
[10] = test system: Staphylococcus aureus; assay: Minimum inhibitory activity against Staphylococcus aureus GC 2216 (ATCC); type: functional
[11] = test system: Staphylococcus aureus; assay: Minimum inhibitory activity against Staphylococcus aureus GC 4543 (MSSA); type: functional
[12] = biological target: T1, UDP-N-acetylmuramate--L-alanine ligase (Staphylococcus aureus, UniProt O31211); assay: In vitro inhibitory activity against Staphylococcus aureus UDP-N-acetylmuramoyl-L-alanine synthetase
T1 sequence (O31211 whole entry): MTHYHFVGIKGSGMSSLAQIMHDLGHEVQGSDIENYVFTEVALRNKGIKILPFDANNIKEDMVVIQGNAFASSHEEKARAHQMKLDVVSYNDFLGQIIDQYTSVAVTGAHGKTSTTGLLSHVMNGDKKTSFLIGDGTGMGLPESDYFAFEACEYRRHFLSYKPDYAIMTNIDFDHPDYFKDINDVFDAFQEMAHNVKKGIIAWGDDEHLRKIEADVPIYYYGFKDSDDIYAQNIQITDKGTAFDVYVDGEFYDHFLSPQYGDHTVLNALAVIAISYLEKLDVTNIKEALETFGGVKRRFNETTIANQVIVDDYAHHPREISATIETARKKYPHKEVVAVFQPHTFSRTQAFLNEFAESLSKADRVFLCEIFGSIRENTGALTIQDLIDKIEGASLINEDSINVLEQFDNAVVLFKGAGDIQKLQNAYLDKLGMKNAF

[13] = biological target: T2, UDP-N-acetylenolpyruvoylglucosamine reductase (Staphylococcus aureus, UniProt P61431); assay: In vitro inhibitory activity against Staphylococcus aureus UDP-N-acetylmuramate dehydrogenase
T2 sequence (P61431 whole entry): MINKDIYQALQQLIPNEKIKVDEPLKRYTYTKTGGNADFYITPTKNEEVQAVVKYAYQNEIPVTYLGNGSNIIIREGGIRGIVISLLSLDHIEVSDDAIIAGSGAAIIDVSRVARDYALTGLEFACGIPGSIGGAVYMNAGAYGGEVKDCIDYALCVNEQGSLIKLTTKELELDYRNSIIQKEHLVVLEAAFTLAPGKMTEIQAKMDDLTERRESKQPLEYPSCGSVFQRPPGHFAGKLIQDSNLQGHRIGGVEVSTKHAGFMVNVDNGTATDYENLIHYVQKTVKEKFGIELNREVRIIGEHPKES

[14] = biological target: T3, UDP-N-acetylmuramoylalanine--D-glutamate ligase (Staphylococcus aureus, UniProt P0A091); assay: In vitro inhibitory activity against Staphylococcus aureus UDP-N-acetylmuramoyl-L-alanyl-D-glutamate synthetase
T3 sequence (P0A091 whole entry): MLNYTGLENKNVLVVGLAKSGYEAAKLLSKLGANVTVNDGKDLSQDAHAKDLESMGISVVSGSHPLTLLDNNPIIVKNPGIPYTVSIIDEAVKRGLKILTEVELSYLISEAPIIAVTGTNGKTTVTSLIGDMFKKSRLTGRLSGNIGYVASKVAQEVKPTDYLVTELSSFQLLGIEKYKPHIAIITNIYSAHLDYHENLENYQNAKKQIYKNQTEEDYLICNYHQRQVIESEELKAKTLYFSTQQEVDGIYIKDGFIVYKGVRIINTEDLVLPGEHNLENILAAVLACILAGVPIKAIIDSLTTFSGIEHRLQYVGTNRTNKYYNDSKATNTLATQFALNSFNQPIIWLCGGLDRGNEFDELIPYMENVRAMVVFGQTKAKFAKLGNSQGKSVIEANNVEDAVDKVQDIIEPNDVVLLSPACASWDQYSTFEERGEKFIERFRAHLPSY

[15] = test system: Bacteria; assay: Minimum inhibitory activity against gram negative bacteria; type: functional

| logP [1] | MIC [2] | MIC [3] | MIC [4] | MIC [5] | MIC [6] | MIC [7] | MIC [8] | MIC [9] | MIC [10] | MIC [11] | pIC50 [12] | pIC50 [13] | pIC50 [14] | MIC [15] | Structure (SMILES) |
| --- | --- | --- | --- | --- | --- | --- | --- | --- | --- | --- | --- | --- | --- | --- | --- |
| 1.41 | > 128 µg/mL | 128 µg/mL (≈ 490 µM) | 32 µg/mL (≈ 122 µM) | 64 µg/mL (≈ 245 µM) | > 128 µg/mL | 8 µg/mL (≈ 30.6 µM) | > 128 µg/mL | 128 µg/mL (≈ 490 µM) | 128 µg/mL (≈ 490 µM) | 64 µg/mL (≈ 245 µM) | < 4.02 | < 4.02 | 4.32 | – | NC(=O)c1cccc(-n2nc3c(c2O)SCC3)c1 |
| 2.01 | – | – | – | – | – | – | – | – | – | – | – | 4.18 | – | > 128 µg/mL | [O-][S+]1CCc2nn(-c3ccc(Cl)c(Cl)c3)c(O)c21 (configuration not stated) |
